Columns and labels:
[1] = test system: T84; assay: Inhibition of calcium-mediated chloride secretion in the intestinal epithelial cell line T84 by measuring short circuit current at 200 uM concentration; Ineffective; assay type: functional, cell-based; settings: Homo sapiens
[2] = test system: T84; assay: Inhibition of calcium-mediated chloride secretion in the intestinal epithelial cell line T84 by measuring short circuit current at 400 uM concentration; Maximum; assay type: functional, cell-based; settings: Homo sapiens

CCCCO[C@@H]1C[C@H](OP(=O)(OCOC(C)=O)OCOC(C)=O)[C@@H](OP(=O)(OCOC(C)=O)OCOC(C)=O)[C@H](OP(=O)(OCOC(C)=O)OCOC(C)=O)[C@H]1OP(=O)(OCOC(C)=O)OCOC(C)=O (racemic)
inhibition [1]: Ineffective
inhibition [2]: Ineffective

Source: ChEMBL document CHEMBL1131097, “2-Deoxy derivative is a partial agonist of the intracellular messenger inositol 3,4,5,6-tetrakisphosphate in the epithelial cell line T84” (J Med Chem, 1998)
